In ChEMBL document CHEMBL1201861, “Genomics of Drug Sensitity in Cancer screening data, Wellcome Trust Sanger Institute”:
Counter-ions that a name gives are not always drawn.

Legend:
Test in all cases: cells
DB = format: functional, cell-based, Homo sapiens; conditions: Homo sapiens, DB
Description: SANGER: Inhibition of human DB cell growth in a cell viability assay.

NCI-H720 = format: functional, cell-based, Homo sapiens; conditions: Homo sapiens, NCI-H720;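 note: growth inhibition of human NCI-H720 cells determined by a cell viability assay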
Description: SANGER: Inhibition of human NCI-H720 cell growth in a cell viability assay.

NCI-H1648 = format: functional, cell-based, Homo sapiens; conditions: Homo sapiens, NCI-H1648;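 note: cell viability assay measuring inhibition of NCI-H1648 cell growth, from the Sanger screening data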
Description: SANGER: Inhibition of human NCI-H1648 cell growth in a cell viability assay.

LOX IMVI = format: functional, cell-based, Homo sapiens; conditions: Homo sapiens, LOX IMVI
Description: SANGER: Inhibition of human LOXIMVI cell growth in a cell viability assay.

NCI-H1581 = format: functional, cell-based, Homo sapiens; conditions: Homo sapiens, NCI-H1581;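 note: cell growth inhibition read out by a viability assay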
Description: SANGER: Inhibition of human NCI-H1581 cell growth in a cell viability assay.

LB771-HNC = format: functional, cell-based, Homo sapiens; conditions: Homo sapiens, LB771-HNC;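 note: growth inhibition of LB771-HNC human cells, read out with a cell viability assay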
Description: SANGER: Inhibition of human LB771-HNC cell growth in a cell viability assay.

MS-1 = format: functional, cell-based, Homo sapiens; conditions: Homo sapiens, MS-1
Description: SANGER: Inhibition of human MS-1 cell growth in a cell viability assay.

TE-9 = format: functional, cell-based, Homo sapiens; conditions: Homo sapiens, TE-9;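 note: cell growth inhibition, measured with a cell viability readout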
Description: SANGER: Inhibition of human TE-9 cell growth in a cell viability assay.

HCC2157 = format: functional, cell-based, Homo sapiens; conditions: Homo sapiens, HCC2157;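 note: growth inhibition of the cancer cell line, read out as cell viability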
Description: SANGER: Inhibition of human HCC2157 cell growth in a cell viability assay.

ETK-1 = format: functional, cell-based, Homo sapiens; conditions: Homo sapiens, ETK-1;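 note: growth inhibition of human ETK-1 cells, read out with a cell viability assay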
Description: SANGER: Inhibition of human ETK-1 cell growth in a cell viability assay.

UACC-257 = format: functional, cell-based, Homo sapiens; conditions: Homo sapiens, UACC-257
Description: SANGER: Inhibition of human UACC-257 cell growth in a cell viability assay.

L-428 = format: functional, cell-based, Homo sapiens; conditions: Homo sapiens, L-428
Description: SANGER: Inhibition of human L-428 cell growth in a cell viability assay.

OVCAR-4 = format: functional, cell-based, Homo sapiens; conditions: Homo sapiens, OVCAR-4;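 note: growth inhibition of human OVCAR-4 cells, measured with a cell viability assay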
Description: SANGER: Inhibition of human OVCAR-4 cell growth in a cell viability assay.

SW872 = format: functional, cell-based, Homo sapiens; conditions: Homo sapiens, SW872;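 note: growth inhibition of SW872 cells, read out by a viability assay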
Description: SANGER: Inhibition of human SW872 cell growth in a cell viability assay.

EW-24 = format: functional, cell-based, Homo sapiens; conditions: Homo sapiens, EW-24;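 note: human EW-24 cancer cell line, growth inhibition read out via a cell viability assay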
Description: SANGER: Inhibition of human EW-24 cell growth in a cell viability assay.

NCI-H1838 = format: functional, cell-based, Homo sapiens; conditions: Homo sapiens, NCI-H1838;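 note: growth inhibition of NCI-H1838 cells, determined with a cell viability readout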
Description: SANGER: Inhibition of human NCI-H1838 cell growth in a cell viability assay.

MC116 = format: functional, cell-based, Homo sapiens; conditions: Homo sapiens, MC116;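 note: growth inhibition of MC116 cells, read out with a cell viability assay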
Description: SANGER: Inhibition of human MC116 cell growth in a cell viability assay.

Calu-6 = format: functional, cell-based, Homo sapiens; conditions: Homo sapiens, Calu-6;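 note: growth of human Calu-6 cells, read out by a cell viability assay, IC50 marking inhibition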
Description: SANGER: Inhibition of human Calu-6 cell growth in a cell viability assay.

NOMO-1 = format: functional, cell-based, Homo sapiens; conditions: Homo sapiens, NOMO-1;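 note: growth inhibition of human NOMO-1 cells measured by a cell viability assay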
Description: SANGER: Inhibition of human NOMO-1 cell growth in a cell viability assay.

ES4 = format: functional, cell-based, Homo sapiens; conditions: Homo sapiens, ES4;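 note: growth inhibition of human ES4 cells, read out by a cell viability assay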
Description: SANGER: Inhibition of human ES4 cell growth in a cell viability assay.

KU812 cell line = format: functional, cell-based, Homo sapiens; conditions: Homo sapiens, KU812;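 note: growth inhibition of KU812 cells, read out with a cell viability assay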
Description: SANGER: Inhibition of human KU812 cell growth in a cell viability assay.

CAS-1 = format: functional, cell-based, Homo sapiens; conditions: Homo sapiens, CAS-1;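 note: growth inhibition of CAS-1 cells, measured with a cell viability assay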
Description: SANGER: Inhibition of human CAS-1 cell growth in a cell viability assay.

LU-134-A = format: functional, cell-based, Homo sapiens; conditions: Homo sapiens, LU-134-A
Description: SANGER: Inhibition of human LU-134-A cell growth in a cell viability assay.

ES3 = format: functional, cell-based, Homo sapiens; conditions: Homo sapiens, ES3;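 note: growth inhibition of ES3 cells, read out with a cell viability assay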
Description: SANGER: Inhibition of human ES3 cell growth in a cell viability assay.

DSH1 = format: functional, cell-based, Homo sapiens; conditions: Homo sapiens, DSH1;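 note: growth inhibition of human DSH1 cells, measured with a cell viability readout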
Description: SANGER: Inhibition of human DSH1 cell growth in a cell viability assay.

CCRF-CEM = format: functional, cell-based, Homo sapiens; conditions: Homo sapiens, CCRF-CEM;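 note: inhibition of CCRF-CEM cell growth, measured by a cell viability assay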
Description: SANGER: Inhibition of human CCRF-CEM cell growth in a cell viability assay.

SW 962 = format: functional, cell-based, Homo sapiens; conditions: Homo sapiens, SW 962;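 note: growth inhibition of human SW962 cells, read out by a cell viability assay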
Description: SANGER: Inhibition of human SW962 cell growth in a cell viability assay.

QIMR-WIL = format: functional, cell-based, Homo sapiens; conditions: Homo sapiens, QIMR-WIL;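 note: growth inhibition of QIMR-WIL cells, read out with a cell viability assay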
Description: SANGER: Inhibition of human QIMR-WIL cell growth in a cell viability assay.

HT = format: functional, cell-based, Homo sapiens; conditions: Homo sapiens, HT
Description: SANGER: Inhibition of human HT cell growth in a cell viability assay.

SK-LMS-1 = format: functional, cell-based, Homo sapiens; conditions: Homo sapiens, SK-LMS-1;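 note: growth inhibition of human SK-LMS-1 cells, read out with a cell viability assay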
Description: SANGER: Inhibition of human SK-LMS-1 cell growth in a cell viability assay.

SF-539 = format: functional, cell-based, Homo sapiens; conditions: Homo sapiens, SF-539;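 note: Read-out is a cell viability assay, with IC50 reflecting inhibition of cell growth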
Description: SANGER: Inhibition of human SF539 cell growth in a cell viability assay.

TGBC1TKB = format: functional, cell-based, Homo sapiens; conditions: Homo sapiens, TGBC1TKB;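 note: growth inhibition of TGBC1TKB cells, read out by a cell viability assay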
Description: SANGER: Inhibition of human TGBC1TKB cell growth in a cell viability assay.

MV4-11 = format: functional, cell-based, Homo sapiens, MV-4-11; conditions: Homo sapiens, MV4-11;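 note: cell viability readout measuring growth inhibition of human MV-4-11 cells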
Description: SANGER: Inhibition of human MV-4-11 cell growth in a cell viability assay.

SNB-75 = format: functional, cell-based, Homo sapiens; conditions: Homo sapiens, SNB-75;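 note: cell viability assay measuring growth inhibition of human SNB-75 cells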
Description: SANGER: Inhibition of human SNB75 cell growth in a cell viability assay.

KM12 = format: functional, cell-based, Homo sapiens; conditions: Homo sapiens, KM12;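 note: KM12 cell growth inhibition, read out with a cell viability assay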
Description: SANGER: Inhibition of human KM12 cell growth in a cell viability assay.

K5 = format: functional, cell-based, Homo sapiens; conditions: Homo sapiens, K5
Description: SANGER: Inhibition of human K5 cell growth in a cell viability assay.

KG-1 = format: functional, cell-based, Homo sapiens; conditions: Homo sapiens, KG-1;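 note: growth inhibition of KG-1 cells, read out by a cell viability assay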
Description: SANGER: Inhibition of human KG-1 cell growth in a cell viability assay.

C2BBe1 = format: functional, cell-based, Homo sapiens; conditions: Homo sapiens, C2BBe1;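 note: growth inhibition of C2BBe1 cells, read out through a viability assay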
Description: SANGER: Inhibition of human C2BBe1 cell growth in a cell viability assay.

TE-10 = format: functional, cell-based, Homo sapiens; conditions: Homo sapiens, TE-10;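 note: growth inhibition of TE-10 cells, measured by a cell viability assay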
Description: SANGER: Inhibition of human TE-10 cell growth in a cell viability assay.

DMS-114 = format: functional, cell-based, Homo sapiens; conditions: Homo sapiens, DMS-114
IST-SL1 = format: functional, cell-based, Homo sapiens; conditions: Homo sapiens, IST-SL1;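 note: growth inhibition of human IST-SL1 cells, read out with a cell viability assay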
Description: SANGER: Inhibition of human IST-SL1 cell growth in a cell viability assay.

RXF 393 = format: functional, cell-based, Homo sapiens; conditions: Homo sapiens, RXF 393;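 note: growth inhibition of human RXF 393 cells, read out with a cell viability assay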
Description: SANGER: Inhibition of human RXF393 cell growth in a cell viability assay.

AM-38 = format: functional, cell-based, Homo sapiens; conditions: Homo sapiens, AM-38;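 note: growth inhibition of AM-38 cells of human origin, read out by a cell viability assay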
Description: SANGER: Inhibition of human AM-38 cell growth in a cell viability assay.

NCI-H446 = format: functional, cell-based, Homo sapiens; conditions: Homo sapiens, NCI-H446;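 note: growth inhibition of NCI-H446 cells determined by a cell viability assay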
Description: SANGER: Inhibition of human NCI-H446 cell growth in a cell viability assay.

SNU1 = format: functional, cell-based, Homo sapiens; conditions: Homo sapiens, SNU1;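 note: growth inhibition of human NCI-SNU-1 cells, measured with a cell viability assay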
Description: SANGER: Inhibition of human NCI-SNU-1 cell growth in a cell viability assay.

EC-GI-10 = format: functional, cell-based, Homo sapiens; conditions: Homo sapiens, EC-GI-10
Description: SANGER: Inhibition of human EC-GI-10 cell growth in a cell viability assay.

OMC-1 = format: functional, cell-based, Homo sapiens; conditions: Homo sapiens, OMC-1;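 note: growth inhibition of the OMC-1 cell line, measured by a cell viability assay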
Description: SANGER: Inhibition of human OMC-1 cell growth in a cell viability assay.

HH = format: functional, cell-based, Homo sapiens; conditions: Homo sapiens, HH
Description: SANGER: Inhibition of human HH cell growth in a cell viability assay.

TGBC24TKB = format: functional, cell-based, Homo sapiens; conditions: Homo sapiens, TGBC24TKB;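 note: growth inhibition of human TGBC24TKB cells, read out with a cell viability assay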
Description: SANGER: Inhibition of human TGBC24TKB cell growth in a cell viability assay.

COC1=CC(c2cc3ccccc3[nH]2)=N/C1=C\c1[nH]c(C)cc1C [OBATOCLAX MESYLATE]
IC50 (DB): 234 nM
IC50 (NCI-H720): > 16000 nM
IC50 (NCI-H1648): 113 nM
IC50 (LOX IMVI): 61.9 nM
IC50 (NCI-H1581): 2320 nM
IC50 (LB771-HNC): 103 nM
IC50 (MS-1): 1290 nM
IC50 (TE-9): 233 nM
IC50 (HCC2157): 1140 nM
IC50 (ETK-1): 56.7 nM
IC50 (UACC-257): 595 nM
IC50 (L-428): 370 nM
IC50 (OVCAR-4): 206 nM
IC50 (SW872): 160 nM
IC50 (EW-24): 340 nM
IC50 (NCI-H1838): > 16000 nM
IC50 (MC116): 113 nM
IC50 (Calu-6): 90.3 nM
IC50 (NOMO-1): 564 nM
IC50 (ES4): 103 nM
IC50 (KU812 cell line): 994 nM
IC50 (CAS-1): 1090 nM
IC50 (LU-134-A): > 16000 nM
IC50 (ES3): 278 nM
IC50 (DSH1): 4470 nM
IC50 (CCRF-CEM): 771 nM
IC50 (SW 962): 65.7 nM
IC50 (QIMR-WIL): 132 nM
IC50 (HT): 256 nM
IC50 (SK-LMS-1): 314 nM
IC50 (SF-539): 116 nM
IC50 (TGBC1TKB): 620 nM
IC50 (MV4-11): 180 nM
IC50 (SNB-75): 557 nM
IC50 (KM12): 318 nM
IC50 (K5): 532 nM
IC50 (KG-1): 334 nM
IC50 (C2BBe1): 2420 nM
IC50 (TE-10): 95.8 nM
IC50 (DMS-114): 1270 nM
IC50 (IST-SL1): 6540 nM
IC50 (RXF 393): 1770 nM
IC50 (AM-38): 192 nM
IC50 (NCI-H446): 950 nM
IC50 (SNU1): 121 nM
IC50 (EC-GI-10): > 16000 nM
IC50 (OMC-1): 721 nM
IC50 (HH): 707 nM
IC50 (TGBC24TKB): 3680 nM

Cc1ccc(-c2c(C(=O)CCl)n(CCCO)c3ncnc(N)c23)cc1
IC50 (DB): > 4000 nM
IC50 (NCI-H720): > 4000 nM
IC50 (NCI-H1648): > 4000 nM
IC50 (LOX IMVI): > 4000 nM
IC50 (NCI-H1581): > 4000 nM
IC50 (LB771-HNC): > 4000 nM
IC50 (MS-1): > 4000 nM
IC50 (TE-9): > 4000 nM
IC50 (HCC2157): > 4000 nM
IC50 (ETK-1): > 4000 nM
IC50 (UACC-257): > 4000 nM
IC50 (L-428): > 4000 nM
IC50 (OVCAR-4): > 4000 nM
IC50 (SW872): > 4000 nM
IC50 (EW-24): > 4000 nM
IC50 (NCI-H1838): > 4000 nM
IC50 (MC116): > 4000 nM
IC50 (Calu-6): > 4000 nM
IC50 (NOMO-1): > 4000 nM
IC50 (ES4): > 4000 nM
IC50 (KU812 cell line): > 4000 nM
IC50 (CAS-1): > 4000 nM
IC50 (LU-134-A): > 4000 nM
IC50 (ES3): > 4000 nM
IC50 (DSH1): > 4000 nM
IC50 (CCRF-CEM): 2930 nM
IC50 (SW 962): 3660 nM
IC50 (QIMR-WIL): > 4000 nM
IC50 (HT): > 4000 nM
IC50 (SK-LMS-1): 1400 nM
IC50 (SF-539): > 4000 nM
IC50 (TGBC1TKB): > 4000 nM
IC50 (MV4-11): > 4000 nM
IC50 (SNB-75): > 4000 nM
IC50 (KM12): > 4000 nM
IC50 (K5): > 4000 nM
IC50 (KG-1): > 4000 nM
IC50 (C2BBe1): 2740 nM
IC50 (TE-10): > 4000 nM
IC50 (DMS-114): > 4000 nM
IC50 (IST-SL1): > 4000 nM
IC50 (RXF 393): > 4000 nM
IC50 (AM-38): > 4000 nM
IC50 (NCI-H446): > 4000 nM
IC50 (SNU1): > 4000 nM
IC50 (EC-GI-10): > 4000 nM
IC50 (OMC-1): > 4000 nM
IC50 (HH): > 4000 nM
IC50 (TGBC24TKB): > 4000 nM

CCC/C=C/C=C/C(=O)O[C@H]1/C(=C/C(=O)OC)C[C@H]2C[C@H]([C@@H](C)O)OC(=O)C[C@H](O)C[C@@H]3C[C@H](OC(C)=O)C(C)(C)[C@](O)(C[C@@H]4C/C(=C/C(=O)OC)C[C@H](/C=C/C(C)(C)[C@]1(O)O2)O4)O3 [BRYOSTATIN 1]
IC50 (DB): > 8 nM
IC50 (NCI-H720): > 8 nM
IC50 (NCI-H1648): > 8 nM
IC50 (LOX IMVI): > 8 nM
IC50 (NCI-H1581): > 8 nM
IC50 (LB771-HNC): > 8 nM
IC50 (MS-1): > 8 nM
IC50 (TE-9): > 8 nM
IC50 (HCC2157): > 8 nM
IC50 (ETK-1): > 8 nM
IC50 (UACC-257): > 8 nM
IC50 (L-428): > 8 nM
IC50 (OVCAR-4): > 8 nM
IC50 (SW872): > 8 nM
IC50 (EW-24): > 8 nM
IC50 (NCI-H1838): > 8 nM
IC50 (MC116): > 8 nM
IC50 (Calu-6): > 8 nM
IC50 (NOMO-1): > 8 nM
IC50 (ES4): > 8 nM
IC50 (KU812 cell line): > 8 nM
IC50 (CAS-1): > 8 nM
IC50 (LU-134-A): > 8 nM
IC50 (ES3): > 8 nM
IC50 (DSH1): > 8 nM
IC50 (CCRF-CEM): > 8 nM
IC50 (SW 962): > 8 nM
IC50 (QIMR-WIL): > 8 nM
IC50 (HT): > 8 nM
IC50 (SK-LMS-1): > 8 nM
IC50 (SF-539): > 8 nM
IC50 (TGBC1TKB): > 8 nM
IC50 (MV4-11): > 8 nM
IC50 (SNB-75): > 8 nM
IC50 (KM12): > 8 nM
IC50 (K5): > 8 nM
IC50 (KG-1): > 8 nM
IC50 (C2BBe1): > 8 nM
IC50 (TE-10): > 8 nM
IC50 (DMS-114): > 8 nM
IC50 (IST-SL1): > 8 nM
IC50 (RXF 393): > 8 nM
IC50 (AM-38): > 8 nM
IC50 (NCI-H446): > 8 nM
IC50 (SNU1): > 8 nM
IC50 (EC-GI-10): > 8 nM
IC50 (OMC-1): > 8 nM
IC50 (HH): > 8 nM
IC50 (TGBC24TKB): > 8 nM

OCCCNc1cc(-c2ccnc(Nc3cccc(Cl)c3)n2)ccn1
IC50 (DB): 138 nM
IC50 (NCI-H720): > 256 nM
IC50 (NCI-H1648): 189 nM
IC50 (LOX IMVI): 202 nM
IC50 (NCI-H1581): > 256 nM
IC50 (LB771-HNC): 161 nM
IC50 (MS-1): 196 nM
IC50 (TE-9): > 256 nM
IC50 (HCC2157): 206 nM
IC50 (ETK-1): 13.8 nM
IC50 (UACC-257): > 256 nM
IC50 (L-428): 112 nM
IC50 (OVCAR-4): > 256 nM
IC50 (SW872): 26.6 nM
IC50 (EW-24): > 256 nM
IC50 (NCI-H1838): > 256 nM
IC50 (MC116): 40.7 nM
IC50 (Calu-6): > 256 nM
IC50 (NOMO-1): > 256 nM
IC50 (ES4): 35.1 nM
IC50 (KU812 cell line): 45 nM
IC50 (CAS-1): > 256 nM
IC50 (LU-134-A): 123 nM
IC50 (ES3): > 256 nM
IC50 (DSH1): > 256 nM
IC50 (CCRF-CEM): 47 nM
IC50 (SW 962): 45.1 nM
IC50 (QIMR-WIL): 48.8 nM
IC50 (HT): 66.2 nM
IC50 (SK-LMS-1): 135 nM
IC50 (SF-539): > 256 nM
IC50 (TGBC1TKB): 23.6 nM
IC50 (MV4-11): 43.1 nM
IC50 (SNB-75): 27.8 nM
IC50 (KM12): 124 nM
IC50 (K5): 18.8 nM
IC50 (KG-1): > 256 nM
IC50 (C2BBe1): 154 nM
IC50 (TE-10): 38.2 nM
IC50 (DMS-114): > 256 nM
IC50 (IST-SL1): 147 nM
IC50 (RXF 393): 37 nM
IC50 (AM-38): > 256 nM
IC50 (NCI-H446): > 256 nM
IC50 (SNU1): > 256 nM
IC50 (EC-GI-10): > 256 nM
IC50 (OMC-1): 120 nM
IC50 (HH): 70.6 nM
IC50 (TGBC24TKB): > 256 nM
